Reference: patent US20250304608A1, “PHOSPHORUS COMPOUND AND USE THEREOF” (SHANGHAI SHIJIANG BIOTECHNOLOGY CO., LTD., priority 2022, published 2025)
Where two headings read alike, the source gives them in different places.

Assays:
ov-NNMT NCI-H82 cell = assay: CellTiter-Glo cell viability inhibition, ov-NNMT NCI-H82 cell; format: cell-based; details: Homo sapiens, NCI-H82 cell overexpressing NNMT protein
Description: (§1) The expression of NNMT protein in NCI-H82 cell was overexpressed by inserting the NNMT gene into NCI-H82 cell using a viral vector, and the NNMT protein-overexpressing NCI-H82 cell (ov-NNMT NCI-H82 cell) was obtained. The control NCI-H82 cell (Con-NCI-H82 cell) was obtained by transfecting NCI-H82 cell with empty virus vector without carrying NNMT gene. The expressing content of NNMT protein in the Con-NCI-H82 cell and ov-NNMT NCI-H82 cell was detected using Western Blot assay (as shown in FIG. 3), it could be seen from FIG. 3 that the NNMT protein was overexpressed in the ov-NNMT NCI-H82 cell compared with the expression level of NNMT protein in the Con-NCI-H82 cell.

Con-NCI-H82 cell = assay: CellTiter-Glo cell viability inhibition, Con-NCI-H82 cell; format: cell-based; details: Homo sapiens, NCI-H82 cell transfected with empty virus vector
Description: as §1

mPTP-inactive Daoy cell = assay: CellTiter-Glo cell viability inhibition, mPTP-inactive Daoy cell; format: cell-based; details: Homo sapiens, Daoy cell transfected with PPIF shRNA vector
mPTP-active Daoy cell = assay: CellTiter-Glo cell viability inhibition, mPTP-active Daoy cell; format: cell-based; details: Homo sapiens
[1] = tested on: Daoy cell transfected with virus vector carrying shRNA that induces degradation of PPIF mRNA; assay: TMRM mitochondria membrane potential in Daoy cell transfected with PPIF shRNA; format: cell-based, human; details: H2O2 +, CsA −, untreated = 100
[2] = tested on: Daoy cell transfected with empty virus vector without carrying shRNA; assay: TMRM mitochondria membrane potential in Daoy cell transfected with empty virus vector (Con shRNA); format: cell-based, human; details: H2O2 +, CsA −, untreated = 100
Daoy cell = assay: TMRM mitochondria membrane potential in Daoy cell after CsA / H2O2 treatment; format: cell-based, human; details: untreated = 100
Description: The mitochondria permeability transition pore (mPTP) was a non-specific channel on the inner membrane of mitochondria, which could allow small molecules with molecular less than 1.5KD to pass freely, and its activity was affected by peroxides (such as H2O2), pH and calcium ions in mitochondria. […] For cells with active mitochondria permeability transition pore, adding peroxide (such as H2O2) could increase the activity of mitochondria permeability transition pore, resulting in a decrease in mitochondna membrane potential.

[3] = Daoy cell transfected with empty virus vector, CellTiter-Glo, read-out: mPTP-active Daoy cell (IC50)

Compound	IC50 (ov-NNMT NCI-H82 cell) [µM]	IC50 (Con-NCI-H82 cell) [µM]	IC50 (mPTP-inactive Daoy cell) [µM]	IC50 (mPTP-active Daoy cell; [3]) [µM]	Relative TMRM signal intensity (%), mean value [1] [%]	Relative TMRM signal intensity (%), mean value [2] [%]	Relative TMRM signal intensity (%) in Daoy cell, mean value (Daoy cell) [%]	IC50 (mPTP-active Daoy cell; Daoy, read-out: mPTP-active Daoy cell (IC50, μM)) [µM]
COc1ccc([P+](c2ccc(OC)cc2)(c2cccc3c2cnn3C)c2cccc3c2cnn3C)cc1 [AB36439]	7.83	3.07	1.29	4.36	–	–	–	–
COc1ccc([P+](c2ccc(OC)cc2)(c2cccc3nn(C)cc23)c2cccc3c2cnn3C)cc1 [AB36445]	18.3	6.92	3.02	13.9	–	–	–	–
COc1ccc([P+](c2ccc(OC)cc2)(c2ccnc3c2ccn3C)c2ccnc3c2ccn3C)cc1 [AB36448]	11.3	4.23	2	7.24	–	–	–	–
COc1ccc([P+](c2ccc(OC)cc2)(c2ccnc3c2ccn3C)c2cccc3c2cnn3C)cc1 [AB36449]	5.91	1.49	0.57	2.16	–	–	–	–
COc1ccc([P+](c2ccc(OC)cc2)(c2cccc3nn(C)cc23)c2cccc3nn(C)cc23)cc1 [AB36471]	11	2.86	1.48	6.36	–	–	–	–
c1ccc([P+](c2ccccc2)(c2ccccc2)c2cccc3[nH]cnc23)cc1 [AB36504]	10.7	3.38	5.12	25.3	–	–	–	–
c1ccc([P+](c2ccccc2)(c2ccccc2)c2cccc3cn[nH]c23)cc1 [AB36511]	9.74	3.32	4.03	13.4	–	–	–	–
COc1ccc([P+](c2ccc(OC)cc2)(c2cccc3[nH]ncc23)c2cccc3[nH]ncc23)cc1 [AB36516]	17.9	6.47	9.58	33.1	–	–	–	–
c1ccc([P+](c2ccccc2)(c2ccccc2)c2ccoc2)cc1 [AB36533]	8.97	3.09	3.52	11.9	–	–	–	–
c1ccc([P+](c2ccccc2)(c2ccccc2)c2cscn2)cc1 [AB36537]	8.16	3.97	3.55	14.4	–	–	–	–
Brc1c(C[P+](c2ccccc2)(c2ccccc2)c2ccccc2)[nH]c2ccccc12 [AB36542]	9.22	3.25	3.68	8.37	–	–	–	–
C1=C([P+](c2ccccc2)(c2ccccc2)c2ccccc2)CCOC1 [AB36546]	10.5	4.72	7.28	35.1	–	–	–	–
OO [Compound H2O2, H2O2]	–	–	–	–	95	79	82	–
CCCCCCCCCCCC[P+](c1ccccc1)(c1ccccc1)c1ccccc1 [SJ00005]	0.17	0.19	0.33	–	–	–	–	0.32

Second part, led by results:

IC50 (ov-NNMT NCI-H82 cell) [µM]	IC50 (Con-NCI-H82 cell) [µM]	Compound	IC50 (mPTP-inactive Daoy cell) [µM]	IC50 (mPTP-active Daoy cell; [3]) [µM]	Relative TMRM signal intensity (%), mean value [1] [%]	Relative TMRM signal intensity (%), mean value [2] [%]	Relative TMRM signal intensity (%) in Daoy cell, mean value (Daoy cell) [%]	IC50 (mPTP-active Daoy cell; Daoy, read-out: mPTP-active Daoy cell (IC50, μM)) [µM]
0.16	0.17	COc1ccc([P+](c2ccc(OC)cc2)(c2ccc(OC)cc2)c2cccc3c2ccn3C)cc1 [AB36411]	0.68	0.52	–	–	–	–
0.98	0.14	COc1ccc([P+](c2ccc(OC)cc2)(c2cccc3c2ccn3C)c2cccc3c2ccn3C)cc1 [AB36420]	0.19	1.09	–	–	–	–
1.53	0.32	COc1ccc([P+](c2ccc(OC)cc2)(c2cccc3c2ccn3C)c2cccc3c2cnn3C)cc1 [AB36438]	0.24	1.03	–	–	–	–
3.91	0.86	COc1ccc([P+](c2ccc(OC)cc2)(c2cccc3nn(C)cc23)c2cccc3c2ccn3C)cc1 [AB36444]	0.55	1.99	–	–	–	–
1.62	0.35	COc1ccc([P+](c2ccc(OC)cc2)(c2cc3cc[nH]c3cn2)c2cccc3[nH]ccc23)cc1 [AB36453]	0.29	1.85	–	–	–	–
2.09	0.48	COc1ccc([P+](c2ccc(OC)cc2)(c2ccc3[nH]ccc3n2)c2cccc3c2ccn3CCN2CCOCC2)cc1 [AB36459]	0.32	1.56	–	–	–	–
3.43	1.01	COc1ccc([P+](c2ccc(OC)cc2)(c2cccc3[nH]ccc23)c2cccc3[nH]ncc23)cc1 [AB36498]	1.32	6.65	–	–	–	–
0.86	0.11	COc1ccc([P+](c2ccccc2)(c2ccccc2)c2cccc3[nH]ccc23)cc1 [AB36513]	0.38	1.96	–	–	–	–
1.35	0.26	c1ccc([P+](c2ccccc2)(c2cccc3[nH]ccc23)c2cccc3cn[nH]c23)cc1 [AB36514]	1.19	10.2	–	–	–	–
1.92	0.47	c1ccc([P+](c2ccccc2)(c2ccccc2)c2cccc3occc23)cc1 [AB36521]	0.75	2.45	–	–	–	–
5.11	1.35	c1ccc([P+](c2ccccc2)(c2ccccc2)c2cccc3scnc23)cc1 [AB36534]	1.21	3.66	–	–	–	–
2.32	0.46	c1ccc([P+](c2ccccc2)(c2ccccc2)c2cccc3sccc23)cc1 [AB36535]	0.37	1.56	–	–	–	–
1.89	0.56	c1ccc([P+](c2ccccc2)(c2ccccc2)c2cccc3ccoc23)cc1 [AB36536]	0.31	1.39	–	–	–	–
0.79	0.68	C(=C\C[P+](c1ccccc1)(c1ccccc1)c1ccccc1)/C[P+](c1ccccc1)(c1ccccc1)c1ccccc1 [SJ00001]	3.44	3.71	–	–	–	–
0.21	0.18	c1ccc(P(=[N+]=P(c2ccccc2)(c2ccccc2)c2ccccc2)(c2ccccc2)c2ccccc2)cc1 [SJ00002]	0.46	0.44	–	–	–	–
2.98	3.24	c1ccc([P+](CC[P+](c2ccccc2)(c2ccccc2)c2ccccc2)(c2ccccc2)c2ccccc2)cc1 [SJ00003]	5.18	4.91	–	–	–	–
5.32	5.51	[C-]#[N+]N=P(c1ccccc1)(c1ccccc1)c1ccccc1 [SJ00004]	7.99	9.01	–	–	–	–
0.14	0.13	CCCCCCCCCCCCCC[P+](c1ccccc1)(c1ccccc1)c1ccccc1 [SJ00006]	0.34	0.29	–	–	–	–
